Reference: patent US8110582B2, “Prophylactic treatment of UV-induced epidermal neoplasia” (3M Innovative Properties Company, priority 2003, dated 2012)

Legend:
[1] = test system: UV-induced squamous cell carcinoma (SCC), actinic keratosis (AK), or pre-AK lesions; test: UV-induced epidermal neoplasia in SKH-1 mice, Example 3 (simultaneous initiation, 18 weeks); format: in vivo; settings: for % Disease: topical twice per week, UV five days per week for 18 weeks; for Avg. Disease Score: twice per week, UV 18 weeks, SCC + AK + pre-AK lesion score (Table 5)
Text: (§1) Female SKH-1 mice 9-10 weeks old were obtained from Charles River (Raleigh, N.C.) and housed in a room with controlled temperatures and humidity and alternating 12-hour light and dark cycles. The room is lit with fluorescent lights covered by yellow sleeves from EncapSulite International, Inc. (Rosenberg, Tex.) to eliminate all ambient UV radiation. The mice were fed with a 12% Corn Oil Purified Diet from Purina Test Diet (Richmond, Va.) and water, ad libitum. The animals were maintained in facilities approved by the Association for the Assessment and Accreditation of Laboratory Animal Care International and in accordance with current United States Department of Agriculture, Department of Health and Human Services, and National Institutes of Health regulations and standards.
(§2) A small group of mice were not exposed to UV and were used as negative controls. The other mice were chronically UV irradiated. After randomization the mice were lightly anesthetized with halothane and adjustable collars made of hook and loop fastener approximately 10 mm wide and 70 mm long were placed around the mouse's neck to prevent oral ingestion of the IRM. Unless otherwise indicated, thirty minutes before UV exposure mice were topically dosed with 30 μL of either (1) vehicle formulation, (2) IRM formulation, or (3) an SPF 30 sunscreen (NEUTROGENA SPF30 Sunblock with PARSOL 1789), two times per week for a total of 15-18 weeks on the dorsal surface in an area approximately 6 cm^2. Approximately four hours after dosing, the topical treatment (i.e, vehicle formulation; IRM formulation, or sunscreen) was washed off using a dilute soap solution.
(§3) Mice were placed in a standard plexiglass rat cage, 9-10 at a time, that was separated into 12 individual compartments with plexiglass dividers and placed on a shelf 14 inches below the light source without wire cage tops. The mice were exposed to UV radiation 5 times per week (Monday thru Friday) for an average of 15-18 weeks. The UV radiation was provided by a bank of six FS40 lamps (National Biological Corporation, Twinsburg, Ohio), filtered by a Kodacel filter (140 μm thick K6808 cellulose triacetate film; Eastman Kodak, Rochester, N.Y.) that transmits radiation having a wavelength from about 293 nm to about 400 nm. The Kodacel filter was aged 4-6 hours before use. The lights emit UVB (21%) and UVA (79%) light with a peak wavelength of 313 nm, as measured using a radiometer Model PMA 2200 from Solar Light Company (Philadelphia, Pa.) with a PMA 2101 detector for UVB and PMA2110 detector for UVA.
(§4) The dose of UVB irradiation was measured by MED (minimal erythemal dose). By using MED, a relatively constant incident dose of UV was maintained over time. The initial dose of UVB to the mice was 12.6 mJ/cm^2 (0.6 MED) and the average total dose of UVB was 3000-5200 mJ/cm^2. An increase of 10-20% of the MED dose per week was needed due to acclimation of the mice.
(§5) All mice were distinguished from one another by a tattoo placed on the tail. The development and appearance of tumors were noted weekly and recorded starting at about 14-18 weeks.
Formulations of IRM1 and IRM2 were prepared using Vehicle 1. UV dosing and IRM dosing were initiated simultaneously. UV dosing was performed five days per week for 18 weeks.
After 18 weeks, the mice were subjected to gross inspection to determine the presence of a disease state, i.e., squamous cell carcinoma (SCC), actinic keratosis (AK), or pre-AK lesions.
The disease state of each mouse was scored by measuring the size and/or number of lesions present on the mouse. SCC lesions and AK lesions of at least 1 mm in diameter were given a score of 1.
The SCC lesion score, AK lesion score, and the pre-AK lesion score (according to Table 5) were added to provide a total disease score for each mouse. Table 6 includes the average disease score for all of the mice in each treatment group.

[2] = test system: UV-induced squamous cell carcinoma (SCC), actinic keratosis (AK), or pre-AK lesions; test: UV-induced epidermal neoplasia in SKH-1 mice, Example 1 (UV and IRM dosing initiated simultaneously, 15 weeks); format: in vivo; settings: 0.1% formulation in Vehicle 1, topical twice per week, UV five days per week for 15 weeks
Text: (§6) Female SKH-1 mice 9-10 weeks old were obtained from Charles River (Raleigh, N.C.) and housed in a room with controlled temperatures and humidity and alternating 12-hour light and dark cycles. The room is lit with fluorescent lights covered by yellow sleeves from EncapSulite International, Inc. (Rosenberg, Tex.) to eliminate all ambient UV radiation. The mice were fed with a 12% Corn Oil Purified Diet from Purina Test Diet (Richmond, Va.) and water, ad libitum. […]
(§7) Mice were placed in a standard plexiglass rat cage, 9-10 at a time, that was separated into 12 individual compartments with plexiglass dividers and placed on a shelf 14 inches below the light source without wire cage tops. […] The lights emit UVB (21%) and UVA (79%) light with a peak wavelength of 313 nm, as measured using a radiometer Model PMA 2200 from Solar Light Company (Philadelphia, Pa.) with a PMA 2101 detector for UVB and PMA2110 detector for UVA.
(§8) The dose of UVB irradiation was measured by MED (minimal erythemal dose). […]
(§9) All mice were distinguished from one another by a tattoo placed on the tail. The development and appearance of tumors were noted weekly and recorded starting at about 14-18 weeks. […]

[3] = test system: UV-induced squamous cell carcinoma (SCC), actinic keratosis (AK), or pre-AK lesions; test: UV-induced epidermal neoplasia in SKH-1 mice, Example 2 (UV dosing six weeks before IRM dosing, 15 weeks); format: in vivo; settings: topical twice per week, UV for six weeks before IRM dosing, UV five days per week for 15 weeks
Text: as §6, §7, §8, §9

[4] = test system: UV-induced squamous cell carcinoma (SCC), actinic keratosis (AK), or pre-AK lesions; test: UV-induced epidermal neoplasia in SKH-1 mice, Example 4 (simultaneous initiation, 17 weeks); format: in vivo; settings: 0.1% formulation, twice per week; for Avg. Disease Score: UV 17 weeks, every SCC, AK and pre-AK lesion scored 1; for % Disease / Diseased (number of mice): UV five days per week for 17 weeks
Text: as §1, §2, §3, §4, §5
UV dosing and IRM dosing were initiated simultaneously. Daily UV dosing was performed five days per week for 17 weeks. IRM dosing was performed twice per week with the compounds indicated in Table 9, each in a 0.1% formulation. SPF dosing was performed five times per week.
An additional group of mice were topically dosed twice per week with 0.1% formulation of a non-IRM control compound: 1,5-dihydro-1-(2-methylpropyl)-4H-imidazo[4,5-c]quinolin-4-one, the synthesis of which is described in U.S. Pat. No. 4,698,348, Example 71, formulated as shown in Table 8. The non-IRM compound is structurally related to, but outside the scope of, IRM compounds as provided above. […] Mice in the non-IRM group were UV dosed five times per week for 18 weeks. […]

[5] = test system: actinic keratosis (AK) lesions; test: Clinical treatment of actinic keratosis lesions and recurrence at follow-up, Example 5; format: in vivo
Protocol: Subjects with four to eight clinically typical, visible, discrete actinic keratosis (AK) lesions in a 25 cm^2 treatment area were randomized in a 1:1 ratio to receive either a 5% cream formulation of IRM14 (ALDARA, 3M Company, St. Paul, Minn.) or vehicle cream once daily three days per week. Subjects received treatment for sixteen weeks even if clinical evidence of lesion clearance was observed. Subjects were evaluated at an Evaluation visit eight weeks after the treatment period concluded.
Subjects were instructed to administer a single application of cream (vehicle or IRM14, as assigned) to the treatment area at approximately the same time of day three days per week. The subjects were instructed to wash the treatment area prior to applying the cream, rub the cream into the treatment area, and then leave the cream in place for at least eight hours without occlusion.
Subjects with no (zero) clinically visible AK lesions in the 25 cm^2 treatment area at the Evaluation visit were considered complete responders. 117 of 242 (48.3%) subjects receiving IRM14 were complete responders; 18 of 250 (7.2%) vehicle-treated subjects were complete responders.
Complete responders were re-evaluated for recurrence of AK lesions at a Follow-up visit between 12 and 18 months after the Evaluation visit. Subjects received no IRM14 treatment between the Evaluation visit and the Follow-up visit. […]

cytokines = test: Induction of production and secretion of cytokines

| Structure (SMILES) | Avg. Disease Score [4] | % Disease [4] [%] | Diseased (number of mice) [4] | other results |
| --- | --- | --- | --- | --- |
| CC(C)Cn1cnc2c(N)nc3cccnc3c21 [IRM1, 1-(2-methylpropyl)-1H-imidazo[4,5-c][1,5]naphthyridin-4-amine] |  |  |  | % Disease ([1]; 0.01% formulation): 71%; Avg. Disease Score ([1]; 0.01% formulation): 2.86 ± 0.82; % Disease ([1]; 0.1% formulation): 50%; Avg. Disease Score ([1]; 0.1% formulation): 0.66 ± 0.33; % Disease (percentage of mice exhibiting a disease state) [2]: 0% |
| Cc1nc2c(N)nc3cccnc3c2n1CC(C)C [IRM2, 2-methyl-1-(2-methylpropyl)-1H-imidazo[4,5-c][1,5]naphthyridin-4-amine] |  |  |  | % Disease ([1]; 0.01% formulation): 71%; Avg. Disease Score ([1]; 0.01% formulation): 4.86 ± 1.81; % Disease ([1]; 0.1% formulation): 25%; Avg. Disease Score ([1]; 0.1% formulation): 0.6 ± 0.42; % Disease ([3]; 0.1% formulation): 63%; % Disease ([3]; 1.0% formulation): 50%; % Disease (percentage of mice exhibiting a disease state) [2]: 11% |
| Nc1nc2ccccc2c2c1nc1n2CCCC1 [IRM3, 8,9,10,11-tetrahydropyrido[1′,2′:1,2]imidazo[4,5-c]quinolin-6-amine] | 1.00 ± 0.54 | 30 | 3 |  |
| CCOCc1nc2c(N)nc3ccccc3c2n1CC(C)(C)NC(=O)C1CCCCC1 [IRM4, N-{2-[4-amino-2-(ethoxymethyl)-1H-imidazo[4,5-c]quinolin-1-yl]-1,1-dimethylethyl}cyclohexanecarboxamide] | 0.67 ± 0.67 | 11 | 1 |  |
| CCc1nc2c(N)nc3ccccc3c2n1CCCCNC(=O)C(C)C [IRM5, N-[4-(4-amino-2-ethyl-1H-imidazo[4,5-c]quinolin-1-yl)butyl]-2-methylpropanamide] | 5.40 ± 1.91 | 60 | 6 |  |
| CCCc1nc2c(N)nc3ccccc3c2n1CC(C)(C)NS(C)(=O)=O [IRM6, N-[2-(4-amino-2-propyl-1H-imidazo[4,5-c]quinolin-1-yl)-1,1-dimethylethyl]methanesulfonamide] | 0.38 ± 0.38 | 13 | 1 |  |
| COCCc1nc2c(N)nc3c(c2n1CC(C)(C)NS(C)(=O)=O)CCCC3 [IRM7, N-{2-[4-amino-2-(2-methoxyethyl)-6,7,8,9-tetrahydro-1H-imidazo[4,5-c]quinolin-1-yl]-1,1-dimethylethyl}methanesulfonamide] | 3.90 ± 1.30 | 60 | 6 |  |
| CCCc1nc2c(N)nc3ccccc3c2n1CCCCNC(=O)NC(C)C [IRM8, N-[4-(4-amino-2-propyl-1H-imidazo[4,5-c]quinolin-1-yl)butyl]-N′-isopropylurea] | 3.13 ± 0.89 | 75 | 6 |  |
| CCOCc1nc2c(N)nc(C)c(C)c2n1CC(C)(C)NC(=O)NC1CCCCC1 [IRM9, N-{2-[4-amino-2-(ethoxymethyl)-6,7-dimethyl-1H-imidazo[4,5-c]pyridin-1-yl]-1,1-dimethylethyl}-N′-cyclohexylurea] | 2.00 ± 0.89 | 60 | 3 |  |
| Nc1nc2ccccc2c2c1ncn2CCOCCCc1cccnc1 [IRM10, 1-{2-[3-(3-pyridyl)propoxy]ethyl}-1H-imidazo[4,5-c]quinolin-4-amine] | 2.50 ± 1.07 | 70 | 7 |  |
| CCCCc1nc2c(N)nc3ccccc3c2n1CCCS(C)(=O)=O [IRM11, 2-butyl-1-[3-(methylsulfonyl)propyl]-1H-imidazo[4,5-c]quinolin-4-amine] | 0.70 ± 0.47 | 20 | 2 |  |
| CCCCc1nc2c(N)nc3ccccc3c2n1CCS(=O)(=O)CCC [IRM12, 2-butyl-1-[2-(propylsulfonyl)ethyl]-1H-imidazo[4,5-c]quinolin-4-amine] | 0.00 ± 0.00 | 0 | 0 |  |
| CCOCc1nc2c(N)nc3ccccc3c2n1NC(C)C [IRM13, 2-ethoxymethyl-N^1-isopropyl-1H-imidazo[4,5-c]quinoline-1,4-diamine] | 3.33 ± 1.54 | 67 | 4 |  |
| CC(C)Cn1cnc2c(N)nc3ccccc3c21 [IRM14, 1-(2-methylpropyl)-1H-imidazo[4,5-c]quinolin-4-amine] |  |  |  | complete responders (no clinically visible AK lesions in the 25 cm^2 treatment area at the Evaluation visit) ([5]; 5% cream once daily three days per week for sixteen weeks, evaluated eight weeks after treatment, 117 of 242 subjects): 48.3%; AK Recurrence Rate ([5]; complete responders at Follow-up visit 12 to 18 months after Evaluation visit, no treatment in between, 77 IRM14-treated): 24.7% |
| CC(C)Cn1cnc2c(=O)[nH]c3ccccc3c21 [non-IRM, 1,5-dihydro-1-(2-methylpropyl)-4H-imidazo[4,5-c]quinolin-4-one] |  |  |  | induction of production and secretion of cytokines (cytokines): does not induce the production and secretion of cytokines |
